BindingDB's records for doi:10.1021/acs.jmedchem.6b01169 (Gilead Sciences, 2016)
pIC50: −log10 of the molar value.

What follows are molecules tested against Phosphatidylinositol 3-kinase regulatory subunit alpha/4,5-bisphosphate 3-kinase catalytic subunit delta isoform (Homo sapiens, UniProt P27986+O00329) (assay: Inhibition of human full length PI3K p110delta/p85alpha using phosphatidylinositol […] as substrate measured after 30 mins by TR-FRET assay).
Phosphatidylinositol 3-kinase regulatory subunit alpha/4,5-bisphosphate 3-kinase catalytic subunit delta isoform, sequence (P27986 whole entry, canonical isoform): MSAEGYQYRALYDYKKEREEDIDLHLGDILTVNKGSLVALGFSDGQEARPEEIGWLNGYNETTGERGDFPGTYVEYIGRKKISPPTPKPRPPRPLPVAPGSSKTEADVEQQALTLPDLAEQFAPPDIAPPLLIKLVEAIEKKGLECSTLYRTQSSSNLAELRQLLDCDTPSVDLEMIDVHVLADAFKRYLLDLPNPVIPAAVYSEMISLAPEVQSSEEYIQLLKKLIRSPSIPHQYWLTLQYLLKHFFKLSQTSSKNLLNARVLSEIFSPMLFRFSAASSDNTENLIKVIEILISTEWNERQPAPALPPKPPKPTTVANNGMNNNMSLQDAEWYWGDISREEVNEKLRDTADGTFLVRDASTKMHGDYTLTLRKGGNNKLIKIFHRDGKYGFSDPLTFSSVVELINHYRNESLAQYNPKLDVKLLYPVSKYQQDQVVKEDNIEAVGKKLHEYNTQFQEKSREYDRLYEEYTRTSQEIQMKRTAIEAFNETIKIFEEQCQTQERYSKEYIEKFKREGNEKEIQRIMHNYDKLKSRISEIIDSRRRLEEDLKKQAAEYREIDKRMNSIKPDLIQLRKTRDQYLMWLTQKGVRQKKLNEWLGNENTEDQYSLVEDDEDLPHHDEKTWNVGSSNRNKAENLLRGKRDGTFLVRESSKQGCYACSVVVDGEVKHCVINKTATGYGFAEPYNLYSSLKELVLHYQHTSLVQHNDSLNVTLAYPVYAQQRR
Phosphatidylinositol 3-kinase regulatory subunit alpha/4,5-bisphosphate 3-kinase catalytic subunit delta isoform, sequence (O00329 whole entry, canonical isoform): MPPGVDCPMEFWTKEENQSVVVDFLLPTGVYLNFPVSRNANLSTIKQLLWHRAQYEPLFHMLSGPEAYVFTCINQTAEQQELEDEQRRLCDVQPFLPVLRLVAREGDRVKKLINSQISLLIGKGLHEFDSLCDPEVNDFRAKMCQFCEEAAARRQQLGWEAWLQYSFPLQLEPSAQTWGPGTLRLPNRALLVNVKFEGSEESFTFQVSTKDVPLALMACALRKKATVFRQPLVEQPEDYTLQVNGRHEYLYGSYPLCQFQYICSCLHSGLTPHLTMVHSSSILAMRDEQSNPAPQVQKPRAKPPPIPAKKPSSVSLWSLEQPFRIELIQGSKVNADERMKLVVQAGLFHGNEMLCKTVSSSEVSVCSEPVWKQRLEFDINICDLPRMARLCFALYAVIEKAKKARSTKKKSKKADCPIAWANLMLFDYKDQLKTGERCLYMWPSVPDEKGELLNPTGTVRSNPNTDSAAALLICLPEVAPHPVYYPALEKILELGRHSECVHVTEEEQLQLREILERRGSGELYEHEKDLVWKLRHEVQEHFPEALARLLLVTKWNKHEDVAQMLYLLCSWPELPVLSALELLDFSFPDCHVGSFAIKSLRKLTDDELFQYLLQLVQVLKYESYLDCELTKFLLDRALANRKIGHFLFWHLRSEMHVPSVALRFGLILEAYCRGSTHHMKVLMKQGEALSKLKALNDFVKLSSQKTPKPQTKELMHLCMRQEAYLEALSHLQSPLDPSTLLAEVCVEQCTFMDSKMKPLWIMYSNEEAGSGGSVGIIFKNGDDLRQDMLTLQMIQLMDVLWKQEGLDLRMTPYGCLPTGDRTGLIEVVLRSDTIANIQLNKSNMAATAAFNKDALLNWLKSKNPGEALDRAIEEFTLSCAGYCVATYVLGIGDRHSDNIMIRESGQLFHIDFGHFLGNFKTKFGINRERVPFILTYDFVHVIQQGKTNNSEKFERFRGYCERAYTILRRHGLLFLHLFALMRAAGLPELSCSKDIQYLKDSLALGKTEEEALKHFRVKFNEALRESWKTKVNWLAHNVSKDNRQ

Compound	pIC50
C[C@H](Nc1nc(N)nc(N)c1C#N)c1nc2cccc(Cl)c2c(=O)n1-c1cccnc1 [US9221795, 1]	9.22
C[C@H](Nc1nc(N)nc(N)c1C#N)c1nc2cccc(Cl)c2c(=O)n1-c1cncc(Cl)c1 [US9221795, 13]	8.10
COc1cncc(-n2c([C@H](C)Nc3nc(N)nc(N)c3C#N)nc3cccc(Cl)c3c2=O)c1 [US9221795, 14]	8.40
C[C@H](Nc1nc(N)nc(N)c1C#N)c1nc2cccc(Cl)c2c(=O)n1-c1cncc(C2CC2)c1 [US9221795, 19]	8.30
C[C@H](Nc1nc(N)nc(N)c1C#N)c1nc2c(Cl)cccc2c(=O)n1-c1cccnc1 [US9221795, 22]	8.22
C[C@H](Nc1nc(N)nc(N)c1C#N)c1nc2c(F)ccc(Cl)c2c(=O)n1-c1cccnc1 [US9221795, 24]	9.40
C[C@H](Nc1nc(N)nc(N)c1C#N)c1nc2c(F)ccc(F)c2c(=O)n1-c1cccnc1 [US9221795, 25]	8.10
Cc1ccncc1-n1c([C@H](C)Nc2nc(N)nc(N)c2C#N)nc2cccc(Cl)c2c1=O [US9221795, 40]	9.40
